Experimental data: patent US12137690B2, “Herbicidal mixtures comprising L-glufosinate and their use in cotton cultures” (BASF SE, priority 2017, dated 2024)

Tests used:
Test in all cases: Post emergence treatment, herbicidal activity on scale 0 to 100, synergism by Colby
Assay type in all cases: in vivo
Conditions in all cases: scale 0-100
[1] = system: ECHCG (Echinochloa crus-galli)
Method: (§1) The presence of a synergistic effect in terms of percent control, between two mixing partners (X and Y) can be calculated using the Colby equation (Colby, S. R., 1967, Calculating Synergistic and Antagonistic Responses in Herbicide Combinations, Weeds, 15, 21-22):
(§2) The analysis of synergism or antagonism between the mixtures or compositions was determined using Colby's equation.
(§3) The culture containers used were plastic flowerpots containing loamy sand with approximately 3.0% of humus as the substrate. The seeds of the test plants were sown separately for each species and/or resistant biotype. […] The containers were irrigated gently to promote germination and growth and subsequently covered with transparent plastic hoods until the plants had rooted. This cover caused uniform germination of the test plants, unless this had been impaired by the active ingredients. […] For this purpose, the test plants were either sown directly and grown in the same containers, or they were first grown separately as seedlings and transplanted into the test containers a few days prior to treatment. Depending on the species, the plants were kept at 10-25° C. or 20-35° C., respectively. The test period extended to 20 days after treatment. During this time, the plants were tended, and their response to the individual treatments was evaluated. The evaluation was carried out by using a scale from 0 to 100. 100 means no emergence of the plants or complete destruction of at least the above-ground parts, and 0 means no damage, or normal course of growth. Data shown are the mean of two replications.

KCHSC (Kochia scoparia) = system: KCHSC (Kochia scoparia)
Method: as §1, §2, §3

AVEFA (Avena fatua) = system: AVEFA (Avena fatua)
Method: as §1, §2, §3

[2] = system: CHEAL (Chenopodium album)
Method: as §1, §2, §3

SETVI (Setaria viridis) = system: SETVI (Setaria viridis)
Method: as §1, §2, §3

CYPIR (Cyperus iria) = system: CYPIR (Cyperus iria)
Method: as §1, §2, §3

[3] = system: ABUTH (Abutilon theophrasti)
Method: as §1, §2, §3

[4] = system: ERICA (Erigeron Canadensis, Conyza canadensis)
Method: as §1, §2, §3

[5] = 2,4-D as dimethylammonium salt 70 g ai/ha
[6] = 2,4-D as dimethylammonium salt 140 g ai/ha

## CC(C)N(C)S(=O)(=O)NC(=O)c1cc(-n2c(=O)cc(C(F)(F)F)n(C)c2=O)c(F)cc1Cl [Saflufenacil, saflufenacil]
[1]; Saflufenacil 0.5 g ai/ha
  Herbicidal activity against ECHCG, Found: 0

## COC[C@H](C)N(C(=O)CCl)c1c(C)csc1C [Dimethenamid-P, dimethenamid-P]
KCHSC (Kochia scoparia); Dimethenamid-P 500 g ai/ha
  Herbicidal activity against KCHSC, Found: 0
KCHSC (Kochia scoparia); Dimethenamid-P 1000 g ai/ha
  Herbicidal activity against KCHSC, Found: 70

## CP(=O)(O)CC[C@H](N)C(=O)O [L-Glufosinate, (2S)-2-amino-4-[hydroxy(methyl)phosphinoyl]butyric acid]
AVEFA (Avena fatua); L-Glufosinate 100 g ai/ha
  Herbicidal activity against AVEFA, Found: 35
AVEFA (Avena fatua); L-Glufosinate 300 g ai/ha
  Herbicidal activity against AVEFA, Found: 20
[2]; L-Glufosinate 100 g ai/ha
  Herbicidal activity against CHEAL, Found: 0
SETVI (Setaria viridis); Example 8, L-Glufosinate 100 g ai/ha
  Herbicidal activity against SETVI, Found: 30
SETVI (Setaria viridis); Example 9, L-Glufosinate 100 g ai/ha
  Herbicidal activity against SETVI, Found: 30
SETVI (Setaria viridis); L-Glufosinate 75 g ai/ha
  Herbicidal activity against SETVI, Found: 0
SETVI (Setaria viridis); L-Glufosinate 150 g ai/ha
  Herbicidal activity against SETVI, Found: 70
[1]; Example 4, L-Glufosinate 200 g ai/ha
  Herbicidal activity against ECHCG, Found: 0
[1]; Example 4, L-Glufosinate 400 g ai/ha
  Herbicidal activity against ECHCG, Found: 65
[1]; Example 6, L-Glufosinate 200 g ai/ha
  Herbicidal activity against ECHCG, Found: 0
[1]; Example 6, L-Glufosinate 400 g ai/ha
  Herbicidal activity against ECHCG, Found: 65
[1]; Example 12, L-Glufosinate 100 g ai/ha
  Herbicidal activity against ECHCG, Found: 0
[1]; Example 12, L-Glufosinate 200 g ai/ha
  Herbicidal activity against ECHCG, Found: 0
[1]; Example 13, L-Glufosinate 100 g ai/ha
  Herbicidal activity against ECHCG, Found: 0
[1]; Example 13, L-Glufosinate 200 g ai/ha
  Herbicidal activity against ECHCG, Found: 0
[1]; Example 14, L-Glufosinate 100 g ai/ha
  Herbicidal activity against ECHCG, Found: 0
[1]; Example 14, L-Glufosinate 200 g ai/ha
  Herbicidal activity against ECHCG, Found: 0
CYPIR (Cyperus iria); L-Glufosinate 200 g ai/ha
  Herbicidal activity against CYPIR, Found: 0
[3]; L-Glufosinate 75 g ai/ha
  Herbicidal activity against ABUTH, Found: 0
[4]; L-Glufosinate 75 g ai/ha
  Herbicidal activity against ERICA, Found: 90
KCHSC (Kochia scoparia); L-Glufosinate 200 g ai/ha
  Herbicidal activity against KCHSC, Found: 90

## Cc1nn(-c2cc(NS(C)(=O)=O)c(Cl)cc2Cl)c(=O)n1C(F)F [Sulfentrazone, sulfentrazone]
[4]; Sulfentrazone 1.25 g ai/ha
  Herbicidal activity against ERICA, Found: 0
[4]; Sulfentrazone 2.5 g ai/ha
  Herbicidal activity against ERICA, Found: 0

## C#CCN1C(=O)C(F)(F)Oc2cc(F)c(-n3c(=O)n(C)c(=S)n(C)c3=O)cc21 [Trifludimoxazin, trifludimoxazin]
[1]; Trifludimoxazin 0.25 g ai/ha
  Herbicidal activity against ECHCG, Found: 10

## CCc1cccc(C)c1N(C(=O)CCl)[C@@H](C)COC [S-Metolachlor, S-metolachlor]
[2]; S-Metolachlor 500 g ai/ha
  Herbicidal activity against CHEAL, Found: 20
[2]; S-Metolachlor 1000 g ai/ha
  Herbicidal activity against CHEAL, Found: 75

## bicyclopyrone
[1]; Bicyclopyrone 2 g ai/ha
  Herbicidal activity against ECHCG, Found: 0

## CNC.COc1c(Cl)ccc(Cl)c1C(=O)O [Dicamba as dimethylammonium salt, Dicamba dimethylammonium salt]
SETVI (Setaria viridis); Dicamba as dimethylammonium salt 35 g ai/ha
  Herbicidal activity against SETVI, Found: 0
SETVI (Setaria viridis); Dicamba as dimethylammonium salt 70 g ai/ha
  Herbicidal activity against SETVI, Found: 0
SETVI (Setaria viridis); Dicamba as dimethylammonium salt 140 g ai/ha
  Herbicidal activity against SETVI, Found: 30

## CS(=O)(=O)c1ccc(C(=O)C2C(=O)CCCC2=O)c(Cl)c1COCC(F)(F)F [Tembotrione, tembotrione]
[1]; Tembotrione 0.5 g ai/ha
  Herbicidal activity against ECHCG, Found: 0

## Cc1c(C(=O)c2cnn(C)c2O)ccc(S(C)(=O)=O)c1C1=NOCC1 [Topramezone, topramezone]
[1]; Topramezone 1 g ai/ha
  Herbicidal activity against ECHCG, Found: 0

## CNC.O=C(O)COc1ccc(Cl)cc1Cl [2,4-D as dimethylammonium salt, 2,4-D dimethylammonium salt]
AVEFA (Avena fatua); [5]
  Herbicidal activity against AVEFA, Found: 0
AVEFA (Avena fatua); [6]
  Herbicidal activity against AVEFA, Found: 0
SETVI (Setaria viridis); [5]
  Herbicidal activity against SETVI, Found: 0
SETVI (Setaria viridis); [6]
  Herbicidal activity against SETVI, Found: 0

## CCOC(=O)COc1ncccc1Oc1cc(-n2c(=O)cc(C(F)(F)F)n(C)c2=O)c(F)cc1Cl [Compound II-83, ethyl [3-[2-chloro-4-fluoro-5-(1-methyl-6-trifluoromethyl-2,4-dioxo-1,2,3,4-tetrahydropyrimidin-3-yl)phenoxy]-2-pyridyloxy]acetate]
CYPIR (Cyperus iria); Compound II-83 0.25 g ai/ha
  Herbicidal activity against CYPIR, Found: 0

## CN(C)C(=O)Nc1cccc(C(F)(F)F)c1 [Fluometuron, fluometuron]
[3]; Fluometuron 125 g ai/ha
  Herbicidal activity against ABUTH, Found: 0
[3]; Fluometuron 250 g ai/ha
  Herbicidal activity against ABUTH, Found: 20

## O=C(Nc1ccccc1)Nc1cnns1 [Thidiazuron]
SETVI (Setaria viridis); Thidiazuron 50 g ai/ha
  Herbicidal activity against SETVI, Found: 0

## CN(C)C(=O)Nc1ccc(Cl)c(Cl)c1 [Diuron, diuron]
AVEFA (Avena fatua); Diuron 125 g ai/ha
  Herbicidal activity against AVEFA, Found: 20
AVEFA (Avena fatua); Diuron 250 g ai/ha
  Herbicidal activity against AVEFA, Found: 30
